± gives the expanded uncertainty stated by the source.
How the values were obtained:
[1] = xn = mol fraction of the nth substance listed; details: 293.15 K; for mass density: 101 kPa, Liquid, Vibrating tube method
[2] = for surface tension liquid-gas: Plate tensiometer; for mass density: 101.33 kPa, Liquid, Vibrating tube method

Compound `CCCCO` [butan-1-ol] + CCn1cc[n+](C)c1.COS(=O)(=O)[O-] has a surface tension liquid-gas ([1]; Ring tensiometer, x2 = 0) of 23.62 ± 0.01 mN/m and a mass density ([1]; x2 = 0) of 809.6 ± 20 kg/m3.

`CCn1cc[n+](C)c1.COS(=O)(=O)[O-]` [1-ethyl-3-methylimidazolium methylsulfate] + CCCCO gave a surface tension liquid-gas ([1]; Ring tensiometer, x1 = 0.032) of 23.96 ± 0.02 mN/m, a surface tension liquid-gas ([1]; Ring tensiometer, x1 = 0.071) of 24.3 ± 0.1 mN/m and a surface tension liquid-gas ([1]; Ring tensiometer, x1 = 0.1) of 24.39 ± 0.02 mN/m. The surface tension liquid-gas ([1]; Ring tensiometer, x1 = 0.2306) was 25.51 ± 0.04 mN/m, the surface tension liquid-gas ([1]; Ring tensiometer, x1 = 0.3) was 26.11 ± 0.05 mN/m and the surface tension liquid-gas ([1]; Ring tensiometer, x1 = 0.3996) was 27.13 ± 0.06 mN/m. It also gave a surface tension liquid-gas ([1]; Ring tensiometer, x1 = 0.4989) of 28.16 ± 0.08 mN/m, a surface tension liquid-gas ([1]; Ring tensiometer, x1 = 0.5993) of 28.58 ± 0.09 mN/m and a surface tension liquid-gas ([1]; Ring tensiometer, x1 = 0.695) of 28.61 ± 0.1 mN/m. It also gave a surface tension liquid-gas ([1]; Ring tensiometer, x1 = 0.7864) of 33.18 ± 0.13 mN/m, a surface tension liquid-gas ([1]; Ring tensiometer, x1 = 0.9206) of 39.12 ± 0.18 mN/m and a surface tension liquid-gas ([1]; Ring tensiometer, x1 = 0.9628) of 43.21 ± 0.21 mN/m. For the same compound, the surface tension liquid-gas ([1]; Ring tensiometer, x1 = 1) was 52.62 ± 0.26 mN/m, the mass density ([1]; x1 = 0.032) was 837.1 ± 20 kg/m3 and the mass density ([1]; x1 = 0.071) was 868.3 ± 20 kg/m3. For the same compound, the mass density ([1]; x1 = 0.1) was 890.3 ± 20 kg/m3, the mass density ([1]; x1 = 0.2306) was 978.5 ± 20 kg/m3 and the mass density ([1]; x1 = 0.3) was 1017.9 ± 20 kg/m3. For the same compound, the mass density ([1]; x1 = 0.3996) was 1066.8 ± 20 kg/m3, the mass density ([1]; x1 = 0.4989) was 1109.3 ± 20 kg/m3 and the mass density ([1]; x1 = 0.5993) was 1147.1 ± 20 kg/m3. It also gave a mass density ([1]; x1 = 0.695) of 1179.6 ± 20 kg/m3, a mass density ([1]; x1 = 0.7864) of 1207.2 ± 20 kg/m3 and a mass density ([1]; x1 = 0.9206) of 1243.6 ± 20 kg/m3. The mass density ([1]; x1 = 1) was 1262.9 ± 20 kg/m3.

In the case of `CCn1cc[n+](C)c1.COS(=O)(=O)[O-]` [1-ethyl-3-methylimidazolium methylsulfate] + CO, the surface tension liquid-gas ([1]; Plate tensiometer, x1 = 0.05) is reported as 24.19 ± 0.06 mN/m, the surface tension liquid-gas ([1]; Plate tensiometer, x1 = 0.08) is reported as 25.56 ± 0.07 mN/m and the surface tension liquid-gas ([1]; Plate tensiometer, x1 = 0.0995) is reported as 26.19 ± 0.07 mN/m. The surface tension liquid-gas ([1]; Plate tensiometer, x1 = 0.2001) was 30.12 ± 0.09 mN/m, the surface tension liquid-gas ([1]; Plate tensiometer, x1 = 0.3024) was 33.16 ± 0.11 mN/m and the surface tension liquid-gas ([1]; Plate tensiometer, x1 = 0.4012) was 37.21 ± 0.13 mN/m. The surface tension liquid-gas ([1]; Plate tensiometer, x1 = 0.4971) was 40.02 ± 0.15 mN/m, the surface tension liquid-gas ([1]; Plate tensiometer, x1 = 0.6) was 43.02 ± 0.17 mN/m and the surface tension liquid-gas ([1]; Plate tensiometer, x1 = 0.7004) was 45.59 ± 0.19 mN/m. It also gave a surface tension liquid-gas ([1]; Plate tensiometer, x1 = 0.8003) of 48.06 ± 0.22 mN/m, a surface tension liquid-gas ([1]; Plate tensiometer, x1 = 0.8971) of 50.63 ± 0.24 mN/m and a surface tension liquid-gas ([1]; Plate tensiometer, x1 = 0.9389) of 51.59 ± 0.25 mN/m. For the same compound, the surface tension liquid-gas ([1]; Plate tensiometer, x1 = 1) was 52.62 ± 0.26 mN/m, the mass density ([1]; x1 = 0.05) was 883.8 ± 20 kg/m3 and the mass density ([1]; x1 = 0.08) was 928.9 ± 20 kg/m3. It also gave a mass density ([1]; x1 = 0.0995) of 957.2 ± 20 kg/m3, a mass density ([1]; x1 = 0.2001) of 1061.5 ± 20 kg/m3 and a mass density ([1]; x1 = 0.3024) of 1122.2 ± 20 kg/m3. For the same compound, the mass density ([1]; x1 = 0.4012) was 1161.3 ± 20 kg/m3, the mass density ([1]; x1 = 0.4971) was 1189.3 ± 20 kg/m3 and the mass density ([1]; x1 = 0.6) was 1212.1 ± 20 kg/m3. It also gave a mass density ([1]; x1 = 0.7004) of 1228 ± 20 kg/m3, a mass density ([1]; x1 = 0.8003) of 1242.3 ± 20 kg/m3 and a mass density ([1]; x1 = 0.8971) of 1252.6 ± 20 kg/m3. For the same compound, the mass density ([1]; x1 = 0.9389) was 1256.7 ± 20 kg/m3 and the mass density ([1]; x1 = 1) was 1262.9 ± 20 kg/m3.

With `CCO` [ethanol] + CCn1cc[n+](C)c1.COS(=O)(=O)[O-] the surface tension liquid-gas ([1]; Plate tensiometer, x2 = 0) was 22 ± 1 mN/m and the mass density ([1]; x2 = 0) was 785.7 ± 20 kg/m3.

Work on `CCn1cc[n+](C)c1.COS(=O)(=O)[O-]` [1-ethyl-3-methylimidazolium methylsulfate] + CCO yielded a surface tension liquid-gas ([1]; Plate tensiometer, x1 = 0.04) of 22.75 ± 0.06 mN/m, a surface tension liquid-gas ([1]; Plate tensiometer, x1 = 0.0597) of 23.23 ± 0.06 mN/m and a surface tension liquid-gas ([1]; Plate tensiometer, x1 = 0.08) of 23.62 ± 0.06 mN/m. It also gave a surface tension liquid-gas ([1]; Plate tensiometer, x1 = 0.0999) of 24.08 ± 0.07 mN/m, a surface tension liquid-gas ([1]; Plate tensiometer, x1 = 0.2) of 26.08 ± 0.08 mN/m and a surface tension liquid-gas ([1]; Plate tensiometer, x1 = 0.3) of 28.59 ± 0.09 mN/m. For the same compound, the surface tension liquid-gas ([1]; Plate tensiometer, x1 = 0.4) was 30.09 ± 0.11 mN/m, the surface tension liquid-gas ([1]; Plate tensiometer, x1 = 0.5) was 32.19 ± 0.12 mN/m and the surface tension liquid-gas ([1]; Plate tensiometer, x1 = 0.5998) was 34.22 ± 0.14 mN/m. The surface tension liquid-gas ([1]; Plate tensiometer, x1 = 0.6993) was 38.92 ± 0.17 mN/m, the surface tension liquid-gas ([1]; Plate tensiometer, x1 = 0.8005) was 44.18 ± 0.2 mN/m and the surface tension liquid-gas ([1]; Plate tensiometer, x1 = 0.9009) was 49.23 ± 0.23 mN/m. It also gave a surface tension liquid-gas ([1]; Plate tensiometer, x1 = 1) of 52.62 ± 0.26 mN/m, a mass density ([1]; x1 = 0.04) of 839.3 ± 20 kg/m3 and a mass density ([1]; x1 = 0.0597) of 862.9 ± 20 kg/m3. It also gave a mass density ([1]; x1 = 0.08) of 885.6 ± 20 kg/m3, a mass density ([1]; x1 = 0.0999) of 906.5 ± 20 kg/m3 and a mass density ([1]; x1 = 0.2) of 995.1 ± 20 kg/m3. For the same compound, the mass density ([1]; x1 = 0.3) was 1064.8 ± 20 kg/m3, the mass density ([1]; x1 = 0.4) was 1113.2 ± 20 kg/m3 and the mass density ([1]; x1 = 0.5) was 1150.2 ± 20 kg/m3. The mass density ([1]; x1 = 0.5998) was 1179.8 ± 20 kg/m3, the mass density ([1]; x1 = 0.6993) was 1205.1 ± 20 kg/m3 and the mass density ([1]; x1 = 0.8005) was 1227.1 ± 20 kg/m3. For the same compound, the mass density ([1]; x1 = 0.9009) was 1246.4 ± 20 kg/m3 and the mass density ([1]; x1 = 1) was 1262.9 ± 20 kg/m3.

Work on `CO` [methanol] + CCn1cc[n+](C)c1.COS(=O)(=O)[O-] yielded a surface tension liquid-gas ([1]; Plate tensiometer, x2 = 0) of 21.8 ± 0.1 mN/m and a mass density ([1]; x2 = 0) of 791.2 ± 20 kg/m3.

For `CCn1cc[n+](C)c1.COS(=O)(=O)[O-]` [1-ethyl-3-methylimidazolium methylsulfate], the surface tension liquid-gas ([2]; 283.15 K) was 53.54 ± 0.27 mN/m, the mass density ([2]; 283.15 K) was 1273.4 ± 20 kg/m3 and the surface tension liquid-gas ([2]; 288.15 K) was 53.28 ± 0.27 mN/m. For the same compound, the mass density ([2]; 288.15 K) was 1270.1 ± 20 kg/m3, the surface tension liquid-gas ([2]; 293.15 K) was 52.99 ± 0.27 mN/m and the mass density ([2]; 293.15 K) was 1267 ± 20 kg/m3. For the same compound, the surface tension liquid-gas ([2]; 298.15 K) was 52.62 ± 0.26 mN/m, the mass density ([2]; 298.15 K) was 1262.9 ± 20 kg/m3 and the surface tension liquid-gas ([2]; 303.15 K) was 52.32 ± 0.26 mN/m. For the same compound, the mass density ([2]; 303.15 K) was 1259.4 ± 20 kg/m3, the surface tension liquid-gas ([2]; 308.15 K) was 52.03 ± 0.26 mN/m and the mass density ([2]; 308.15 K) was 1255.8 ± 20 kg/m3. For the same compound, the surface tension liquid-gas ([2]; 313.15 K) was 51.72 ± 0.26 mN/m, the mass density ([2]; 313.15 K) was 1252.9 ± 20 kg/m3 and the surface tension liquid-gas ([2]; 318.15 K) was 51.44 ± 0.26 mN/m. It also gave a mass density ([2]; 318.15 K) of 1249.9 ± 20 kg/m3, a surface tension liquid-gas ([2]; 323.15 K) of 51.07 ± 0.26 mN/m and a mass density ([2]; 323.15 K) of 1246.9 ± 20 kg/m3. For the same compound, the surface tension liquid-gas ([2]; 328.15 K) was 50.68 ± 0.25 mN/m, the mass density ([2]; 328.15 K) was 1243.5 ± 20 kg/m3 and the surface tension liquid-gas ([2]; 333.15 K) was 50.41 ± 0.25 mN/m. The mass density ([2]; 333.15 K) was 1240.3 ± 20 kg/m3.

Source: the NIST ThermoML archive (doi:10.1016/j.fluid.2011.03.008)
